Results published in ChEMBL document CHEMBL5625242, “Discovery of brain permeable 2-Azabicyclo[2.2.2]octane sulfonamides as a novel class of presenilin-1 selective γ-secretase inhibitors” (Eur J Med Chem, 2023).

Legend:
Homo sapiens [1] = species on record: Homo sapiens; assay: Selectivity ratio of IC50 for human PSEN2/APH1A expressed in MEF cells with Psen1/2 double knockout/Aph1ABC triple knockout to IC50 for human PSEN1/APH1B expressed in MEF cells with Psen1/2 double knockout/Aph1ABC triple knockout; type: cell-based
Homo sapiens [2] = species on record: Homo sapiens; assay: Selectivity ratio of IC50 for human PSEN1/APH1A expressed in MEF cells with Psen1/2 double knockout/Aph1ABC triple knockout to IC50 for human PSEN1/APH1B expressed in MEF cells with Psen1/2 double knockout/Aph1ABC triple knockout; type: cell-based
[3] = Inhibition of human PSEN1/APH1A expressed in MEF cells with Psen1/2 double knockout/Aph1ABC triple knockout by ELISA; type: cell-based
[4] = Inhibition of human PSEN2/APH1A expressed in MEF cells with Psen1/2 double knockout/Aph1ABC triple knockout by ELISA; type: cell-based
[5] = Inhibition of human PSEN1/APH1B expressed in MEF cells with Psen1/2 double knockout/Aph1ABC triple knockout by ELISA; type: cell-based
[6] = Inhibition of human PSEN2/APH1B expressed in MEF cells with Psen1/2 double knockout/Aph1ABC triple knockout by ELISA; type: cell-based
Homo sapiens [7] = species on record: Homo sapiens; assay: Selectivity ratio of IC50 for human PSEN2/APH1B expressed in MEF cells with Psen1/2 double knockout/Aph1ABC triple knockout to IC50 for human PSEN1/APH1B expressed in MEF cells with Psen1/2 double knockout/Aph1ABC triple knockout; type: cell-based
[8] = Metabolic stability in mouse liver microsomes assessed as intrinsic clearance; type: ADME, Microsome; conditions: liver microsomes, read-out: CLH
[9] = Metabolic stability in human liver microsomes assessed as intrinsic clearance; type: ADME, Microsome; conditions: liver microsomes, read-out: CLH
MEF = assay: Inhibition of human PSEN1/APH1B expressed in MEF cells with Psen1/2 double knockout/Aph1ABC triple knockout at 10 uM by ELISA relative to control; type: cell-based

`O=S(=O)(c1ccc(Cl)cc1)N1[C@H]2CC[C@@H]([C@H]1c1ccccc1Cl)[C@@H](O)C2` (racemic) showed a Ratio IC50 (Homo sapiens [1]) of 40, a Ratio IC50 (Homo sapiens [2]) of 2 and an IC50 [3] of 12 nM. The IC50 [4] was 131 nM, the IC50 [5] was 3 nM and the IC50 [6] was 214 nM. For the same molecule, the Ratio IC50 (Homo sapiens [7]) was 100.

With `O=C1NCCCC[C@H]1N(Cc1ccc(Br)cc1)S(=O)(=O)c1ccc(Cl)cc1` the Ratio IC50 (Homo sapiens [1]) was > 60, the IC50 [3] was 38.3 nM and the IC50 [4] was 4110 nM. For the same molecule, the IC50 [5] was 24.5 nM, the IC50 [6] was 1700 nM and the Ratio IC50 (Homo sapiens [7]) was > 60.

With `Cc1ccc(S(=O)(=O)N2[C@H]3CC[C@H](C(=O)C3)[C@H]2c2ccc(C(F)(F)F)cc2)cc1` (racemic) the Ratio IC50 (Homo sapiens [1]) was > 100, the IC50 [3] was 281 nM and the IC50 [4] was > 5000 nM. The IC50 [5] was 55 nM, the IC50 [6] was > 5000 nM and the Ratio IC50 (Homo sapiens [7]) was > 100.

Work on `N#Cc1ccc([C@@H]2[C@@H]3CC[C@@H](C[C@@H]3O)N2S(=O)(=O)c2ccc(Cl)cc2)cn1` (racemic) yielded a microsomal CLint [8] of 118 µL/min/mg, a microsomal CLint [9] of 111 µL/min/mg and an IC50 [3] of 67 nM. The IC50 [4] was 741 nM, the IC50 [5] was 12 nM and the IC50 [6] was 2180 nM.

For `O=C1C[C@@H]2CC[C@H]1[C@H](c1cc(F)ccc1F)N2S(=O)(=O)c1ccc(Cl)cc1`, the inhibition (MEF) was 45%.

With `O=C1C[C@@H]2CC[C@H]1[C@@H](c1ccc(C(F)(F)F)nc1)N2S(=O)(=O)c1ccc(Cl)cc1` (racemic) the Ratio IC50 (Homo sapiens [1]) was > 11, the IC50 [3] was 690 nM and the IC50 [4] was > 10000 nM. The IC50 [5] was 390 nM, the IC50 [6] was > 10000 nM and the Ratio IC50 (Homo sapiens [7]) was > 11.

For `COc1ccc(S(=O)(=O)N2[C@H]3CC[C@H](C(=O)C3)[C@H]2c2ccc(C(F)(F)F)cc2)cc1` (racemic), the Ratio IC50 (Homo sapiens [2]) was > 40, the IC50 [3] was > 10000 nM and the IC50 [4] was > 10000 nM. For the same molecule, the IC50 [5] was 1440 nM and the IC50 [6] was > 10000 nM.

For `COc1ccc([C@@H]2[C@@H]3CC[C@@H](CC3=O)N2S(=O)(=O)c2ccc(Cl)cc2)cn1` (racemic), the Ratio IC50 (Homo sapiens [1]) was > 5, the IC50 [3] was 794 nM and the IC50 [4] was > 10000 nM. The IC50 [5] was 195 nM, the IC50 [6] was > 10000 nM and the Ratio IC50 (Homo sapiens [7]) was > 5.

Work on `O=S(=O)(c1ccc(Cl)cc1)N1[C@H]2CC[C@@H]([C@H]1c1cc(F)ccc1F)[C@@H](O)C2` (racemic) yielded a Ratio IC50 (Homo sapiens [1]) of 12, an IC50 [3] of 37 nM and an IC50 [4] of 370 nM. The IC50 [5] was 25 nM, the IC50 [6] was 380 nM and the Ratio IC50 (Homo sapiens [7]) was 12.
